Assay results as given in patent US9790217B2, “Pyridinyloxy- and phenyloxy-pyrazolyl compounds” (Hoffmann-La Roche Inc., priority 2014, dated 2017).
pEC50: −log10 of the molar value.

Tests used:
[1] = molecular target: human CYP11B2 (Homo sapiens (Human), UniProt P19099); experiment: G-402 cellular enzyme assay, human CYP11B2 (aldosterone release, HTRF); type: cell-based; settings: G-402 cells expressing human CYP11B2; 1 μM Deoxycorticosterone
Description: (§1) Herein we identified the use of the G-402 cell line as a host cell to ectopically express (transiently or stably) enzymes of the CYP11 family. Specifically we developed stable G-402 cells expressing ectopically human CYP11B1, human CYP11B2, human CYP11A1, cynmolgus CYP11B1 or cynomolgus CYP11B2 enzyme activity. Importantly the identified cell line G-402 expresses co-factors (adrenodoxin and adrenodoxin reductase) important for the activity of the CYP11 family and no relevant enzyme activity of the CYP11 family (in comparison to H295R cells) was detected in these cells. Therefore the G-402 cell line is uniquely suited as a host cell for the ectopic expression of enzymes from the CYP11 family.
(§2) G-402 cells can be obtained from ATCC (CRL-1440) and were originally derived from a renal leiomyoblastoma.
(§3) The expression plasmids contains the ORF for either human/cyno CYP11B1 or CYP11B2 under the control of a suitable promoter (CMV-promoter) and a suitable resistance marker (neomycin). Using standard techniques the expression plasmid is transfected into G-402 cells and these cells are then selected for expressing the given resistance markers. Individual cell-clones are then selected and assessed for displaying the desired enzymatic activity using 11-Deoxycorticosterone (Cyp11B2) or 11-Deoxycortisol (Cyp11B1) as a substrate.
(§4) G-402 cells expressing CYP11 constructs were established as described above and maintained in McCoy's 5a Medium Modified, ATCC Catalog No. 30-2007 containing 10% FCS and 400 μg/ml G418 (Geneticin) at 37° C. under an atmosphere of 5% CO2/95% air. Cellular enzyme assays were performed in DMEM/F12 medium containing 2.5% charcoal treated FCS and appropriate concentration of substrate (0.3-10 uM 11-Deoxycorticosterone, 11-Deoxycortisol or Corticosterone). For assaying enzymatic activity, cells were plated onto 96 well plates and incubated for 16 h. An aliquot of the supernatant is then transferred and analyzed for the concentration of the expected product (Aldosterone for CYP11B2; Cortisol for CYP11B1). The concentrations of these steroids can be determined using HTRF assays from CisBio analyzing either Aldosterone or Cortisol.
(§5) Inhibition of the release of produced steroids can be used as a measure of the respective enzyme inhibition by test compounds added during the cellular enzyme assay. The dose dependent inhibition of enzymatic activity by a compound is calculated by means of plotting added inhibitor concentrations (x-axes) vs. measured steroid/product level (y-axes). The inhibition is then calculated by fitting the following 4-parameter sigmoidal function (Morgan-Mercer-Flodin (MMF) model) to the raw data points using the least squares method:
(§6) [formula] wherein, A is the maximum y value, B is the EC50 factor determined using XLFit, C is the minimum y value and D is the slope value.
(§7) EC50 values for compounds claimed herein were tested with the G402-based assay system described. Cyp11B2 enzyme activity was tested in presence of 1 μM Deoxycorticosterone and variable amounts of inhibitors; Cyp11B1 enzyme activity was tested in presence of 1 μM Deoxycortisol and variable amounts of inhibitors.

[2] = molecular target: human CYP11B1 (Homo sapiens (Human), UniProt P15538); experiment: G-402 cellular enzyme assay, human CYP11B1 (cortisol release, HTRF); type: cell-based; settings: G-402 cells expressing human CYP11B1; 1 μM Deoxycortisol
human CYP11B1, sequence (P15538 25-503): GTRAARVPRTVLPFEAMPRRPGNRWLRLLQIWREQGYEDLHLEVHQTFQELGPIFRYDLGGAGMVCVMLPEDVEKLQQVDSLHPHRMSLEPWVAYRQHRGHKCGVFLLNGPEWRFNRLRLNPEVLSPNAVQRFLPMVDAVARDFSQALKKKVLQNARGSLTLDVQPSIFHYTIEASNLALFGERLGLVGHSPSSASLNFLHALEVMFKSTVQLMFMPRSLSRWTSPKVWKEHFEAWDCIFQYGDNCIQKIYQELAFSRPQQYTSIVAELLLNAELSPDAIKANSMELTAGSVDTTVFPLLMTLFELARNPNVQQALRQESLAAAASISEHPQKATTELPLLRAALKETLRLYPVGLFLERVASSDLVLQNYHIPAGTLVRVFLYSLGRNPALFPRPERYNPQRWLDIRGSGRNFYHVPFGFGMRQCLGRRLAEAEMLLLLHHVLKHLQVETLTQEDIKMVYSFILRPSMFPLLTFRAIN
Description: as §1, §2, §3, §4, §5, §6, §7

human CYP11B2, sequence (P19099 25-503): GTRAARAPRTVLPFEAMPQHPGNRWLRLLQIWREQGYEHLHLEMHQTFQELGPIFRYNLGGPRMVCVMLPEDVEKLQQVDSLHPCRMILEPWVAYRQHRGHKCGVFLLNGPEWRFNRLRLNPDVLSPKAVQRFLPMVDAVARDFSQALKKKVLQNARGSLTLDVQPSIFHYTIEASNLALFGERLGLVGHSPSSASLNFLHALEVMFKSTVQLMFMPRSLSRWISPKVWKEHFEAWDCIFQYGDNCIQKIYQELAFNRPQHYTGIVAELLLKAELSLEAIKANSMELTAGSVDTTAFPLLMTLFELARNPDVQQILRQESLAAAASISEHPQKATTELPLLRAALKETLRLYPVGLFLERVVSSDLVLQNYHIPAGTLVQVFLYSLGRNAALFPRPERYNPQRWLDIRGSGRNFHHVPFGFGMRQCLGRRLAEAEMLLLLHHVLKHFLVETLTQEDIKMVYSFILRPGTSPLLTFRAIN

For N#Cc1ccc(Oc2cn[nH]c2-c2ccccc2Cl)cc1 [Example 25, 4-[[5-(2-Chlorophenyl)-1H-pyrazol-4-yl]oxy]benzonitrile], the pEC50 [1] was 9.70 and the pEC50 [2] was 7.73.

Fc1cc(Cl)ccc1-c1[nH]ncc1Oc1ccc(C(F)(F)F)cc1 [Example 27, 5-(4-Chloro-2-fluorophenyl)-4-[4-(trifluoromethyl)phenoxy]-1H-pyrazole] showed a pEC50 [1] of 6.24 and a pEC50 [2] of 5.48.

N#Cc1ccc(Oc2cn[nH]c2-c2ccccc2Cl)c(F)c1 [Example 28, 4-[[5-(2-Chlorophenyl)-1H-pyrazol-4-yl]oxy]-3-fluorobenzonitrile] showed a pEC50 [1] of 8.82 and a pEC50 [2] of 6.87.

For N#Cc1ccc(Oc2cn[nH]c2-c2cccc(F)c2F)cc1 [Example 29, 4-[[5-(2,3-Difluorophenyl)-1H-pyrazol-4-yl]oxy]benzonitrile], the pEC50 [1] was 8.12 and the pEC50 [2] was 6.79.

In the case of N#Cc1ccc(Oc2cn[nH]c2-c2cccc(Cl)c2F)cc1 [Example 30, 4-[[5-(3-Chloro-2-fluorophenyl)-1H-pyrazol-4-yl]oxy]benzonitrile], the pEC50 [1] was 8.10 and the pEC50 [2] was 6.72.

For Fc1c(Cl)cccc1-c1[nH]ncc1Oc1ccc(Cl)cc1 [Example 31, 5-(3-Chloro-2-fluorophenyl)-4-(4-chlorophenoxy)-1H-pyrazole], the pEC50 [1] was 6.72 and the pEC50 [2] was 5.74.

With N#Cc1ccc(Oc2cn[nH]c2-c2cccc(Cl)c2)cc1 [Example 32, 4-[[5-(3-Chlorophenyl)-1H-pyrazol-4-yl]oxy]benzonitrile] the pEC50 [1] was 7.34 and the pEC50 [2] was 6.27.

COC(=O)c1cccc(-c2[nH]ncc2Oc2ccc(C#N)cc2)c1 [Example 33, Methyl 3-[4-(4-cyanophenoxy)-1H-pyrazol-3-yl]benzoate] was tested, and the pEC50 [1] was 7.76 and the pEC50 [2] was 7.50.

Work on Fc1cccc(-c2[nH]ncc2Oc2ccc(Cl)cc2)c1Cl [Example 34, 5-(2-Chloro-3-fluorophenyl)-4-(4-chlorophenoxy)-1H-pyrazole] yielded a pEC50 [1] of 7.41 and a pEC50 [2] of 6.58.

N#Cc1ccc(Oc2cn[nH]c2-c2cccc(F)c2Cl)cc1 [Example 35, 4-[[5-(2-Chloro-3-fluorophenyl)-1H-pyrazol-4-yl]oxy]benzonitrile] was tested, and the pEC50 [1] was 8.82 and the pEC50 [2] was 7.16.

N#Cc1ccc(Oc2cn[nH]c2-c2cccc(OCc3ccccc3)c2)cc1 [Example 36, 4-[[5-(3-Phenylmethoxyphenyl)-1H-pyrazol-4-yl]oxy]benzonitrile] gave a pEC50 [1] of 7.77 and a pEC50 [2] of 7.28.

Work on N#Cc1ccc(Oc2cn[nH]c2-c2ccnc(Cl)c2)cc1 [Example 37, 4-[[5-(2-Chloropyridin-4-yl)-1H-pyrazol-4-yl]oxy]benzonitrile] yielded a pEC50 [1] of 6.50 and a pEC50 [2] of 4.98.

COC(=O)c1cccc(-c2[nH]ncc2Oc2ccc(C#N)cc2F)c1 [Example 38, Methyl 3-[4-(4-cyano-2-fluorophenoxy)-1H-pyrazol-3-yl]benzoate] gave a pEC50 [1] of 7.50 and a pEC50 [2] of 6.49.

For CCOC(=O)c1ccccc1-c1[nH]ncc1Oc1ccc(C#N)cc1 [Example 39, Ethyl 2-[4-(4-cyanophenoxy)-1H-pyrazol-3-yl]benzoate], the pEC50 [1] was 7.47 and the pEC50 [2] was 5.94.

For N#Cc1ccc(Oc2cn[nH]c2-c2ccccc2C(=O)O)cc1 [Example 40, 2-[4-(4-Cyanophenoxy)-1H-pyrazol-3-yl]benzoic acid], the pEC50 [1] was 5.82 and the pEC50 [2] was less than 4.52.

N#Cc1ccc(Oc2cn[nH]c2-c2ccccc2OCc2ccccc2)cc1 [Example 41, 4-[[5-(2-Phenylmethoxyphenyl)-1H-pyrazol-4-yl]oxy]benzonitrile] gave a pEC50 [1] of 10.00 and a pEC50 [2] of 9.30.

Compound CS(=O)(=O)c1ccc(-c2[nH]ncc2Oc2ccc(Cl)cc2)c(Cl)c1 [Example 42, 5-(2-Chloro-4-methylsulfonylphenyl)-4-(4-chlorophenoxy)-1H-pyrazole] has a pEC50 [1] of 7.53 and a pEC50 [2] of 6.46.

In the case of CS(=O)(=O)c1ccc(-c2[nH]ncc2Oc2ccc(C#N)cc2)c(Cl)c1 [Example 43, 4-[[5-(2-Chloro-4-methylsulfonylphenyl)-1H-pyrazol-4-yl]oxy]benzonitrile], the pEC50 [1] was 7.38 and the pEC50 [2] was 6.25.

Compound CC(=O)N1CCN(C(=O)c2cccc(-c3[nH]ncc3Oc3ccc(C#N)cc3)c2)CC1 [Example 44, 4-[[3-[3-(4-Acetylpiperazine-1-carbonyl)phenyl]-1H-pyrazol-4-yl]oxy]benzonitrile] has a pEC50 [1] of 6.50 and a pEC50 [2] of less than 4.52.

Work on N#Cc1ccc(Oc2cn[nH]c2-c2cccc(C(=O)N3CCOCC3)c2)cc1 [Example 45, 4-[[3-[3-(Morpholine-4-carbonyl)phenyl]-1H-pyrazol-4-yl]oxy]benzonitrile] yielded a pEC50 [1] of 6.40 and a pEC50 [2] of 5.62.

In the case of CS(=O)(=O)N1CCN(C(=O)c2cccc(-c3[nH]ncc3Oc3ccc(C#N)cc3)c2)CC1 [Example 46, 4-[[3-[3-(4-Methylsulfonylpiperazine-1-carbonyl)phenyl]-1H-pyrazol-4-yl]oxy]benzonitrile], the pEC50 [1] was 5.98 and the pEC50 [2] was 4.97.

Work on N#Cc1ccc(Oc2cn[nH]c2-c2cccc(C(=O)N3CC(CO)C3)c2)cc1 [Example 47, 4-[[3-[3-[3-(Hydroxymethyl)azetidine-1-carbonyl]phenyl]-1H-pyrazol-4-yl]oxy]benzonitrile] yielded a pEC50 [1] of 6.55 and a pEC50 [2] of 6.80.

For N#Cc1ccc(Oc2cn[nH]c2-c2cccc(O)c2)cc1 [Example 48, 4-[[3-(3-Hydroxyphenyl)-1H-pyrazol-4-yl]oxy]benzonitrile], the pEC50 [1] was 7.69 and the pEC50 [2] was 7.08.

Work on N#Cc1ccc(Oc2cn[nH]c2-c2cccc(CO)c2)cc1 [Example 49, 4-[[3-[3-(Hydroxymethyl)phenyl]-1H-pyrazol-4-yl]oxy]benzonitrile] yielded a pEC50 [1] of 7.88 and a pEC50 [2] of 7.07.

With N#Cc1ccc(Oc2cn[nH]c2-c2cccc(OCc3ccccn3)c2)cc1 [Example 50, 4-[[3-[3-(Pyridin-2-ylmethoxy)phenyl]-1H-pyrazol-4-yl]oxy]benzonitrile] the pEC50 [1] was 7.98 and the pEC50 [2] was 7.29.

For N#Cc1ccc(Oc2cn[nH]c2-c2cccc(OCc3cccnc3)c2)cc1 [Example 51, 4-[[3-[3-(Pyridin-3-ylmethoxy)phenyl]-1H-pyrazol-4-yl]oxy]benzonitrile], the pEC50 [1] was 8.02 and the pEC50 [2] was 7.29.

Cc1cc(COc2cccc(-c3[nH]ncc3Oc3ccc(C#N)cc3)c2)on1 [Example 52, 4-[[3-[3-[(3-Methyl-1,2-oxazol-5-yl)methoxy]phenyl]-1H-pyrazol-4-yl]oxy]benzonitrile] showed a pEC50 [1] of 7.83 and a pEC50 [2] of 7.49.

Work on Cn1nncc1COc1cccc(-c2[nH]ncc2Oc2ccc(C#N)cc2)c1 [Example 53, 4-[[3-[3-[(3-Methyltriazol-4-yl)methoxy]phenyl]-1H-pyrazol-4-yl]oxy]benzonitrile] yielded a pEC50 [1] of 7.62 and a pEC50 [2] of 6.70.

With N#Cc1ccc(Oc2cn[nH]c2-c2cccc(OCc3ccncc3)c2)cc1 [Example 54, 4-[[3-[3-(Pyridin-4-ylmethoxy)phenyl]-1H-pyrazol-4-yl]oxy]benzonitrile] the pEC50 [1] was 8.46 and the pEC50 [2] was 7.33.

With N#Cc1ccc(Oc2cn[nH]c2-c2cccc(OCc3ccnc(Cl)c3)c2)cc1 [Example 55, 4-[[3-[3-[(2-Chloropyridin-4-yl)methoxy]phenyl]-1H-pyrazol-4-yl]oxy]benzonitrile] the pEC50 [1] was 7.48 and the pEC50 [2] was 6.54.

Work on Cn1cc(COc2cccc(-c3[nH]ncc3Oc3ccc(C#N)cc3)c2)cn1 [Example 56, 4-[[3-[3-[(1-Methylpyrazol-4-yl)methoxy]phenyl]-1H-pyrazol-4-yl]oxy]benzonitrile] yielded a pEC50 [1] of 8.02 and a pEC50 [2] of 7.03.

Compound CCCCOc1cccc(-c2[nH]ncc2Oc2ccc(C#N)cc2)c1 [Example 59, 4-[[5-(3-Butoxyphenyl)-1H-pyrazol-4-yl]oxy]benzonitrile] has a pEC50 [1] of 7.96 and a pEC50 [2] of 6.99.

COc1ccccc1CCc1[nH]ncc1Oc1ccc(C#N)cc1 [Example 60, 4-[[3-[2-(2-Methoxyphenyl)ethyl]-1H-pyrazol-4-yl]oxy]benzonitrile] gave a pEC50 [1] of 7.27 and a pEC50 [2] of 6.00.

In the case of Cc1ncc(-c2[nH]ncc2Oc2ccc(C#N)cc2)s1 [Example 66, 4-[[3-(2-Methyl-1,3-thiazol-5-yl)-1H-pyrazol-4-yl]oxy]benzonitrile], the pEC50 [1] was 7.16 and the pEC50 [2] was 5.69.
